One assay has as its target PDGFR-β (Homo sapiens (Human), UniProt P09619). Nature of the assay: PDGFR-β tyrosine kinase inhibitory action (HTRF KinEASE-TK). The note with it: PDGFR-β enzyme 1 ng/μL, 30° C. for 30 minutes; read-out: PDGF-β IC50. It counts as biochemical. The method, boiled down:
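Recombinant PDGFR-β at 1 ng/μL final with TK substrate-3-biotin in a substrate solution containing 0.6 μM ATP; buffer 50 mM HEPES pH 7.0, 5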
For orientation: In TR-FRET formats the signal depends on donor and acceptor labels being close together.

Assay [1] deals with TEL-PDGFRβ fusion gene transfected cells (Ba/F3) (Homo sapiens, UniProt P09619). Nature of the assay: Suppression of proliferation of TEL-PDGFRβ fusion gene transfected Ba/F3 cells. It counts as cell-based. As to conditions: TEL-PDGFRβ expressing Ba/F3 cells, 72 hours, final concentration 0.1 to 10,000 nM; read-out: PDGFR β/BaF3 proliferation inhibition (IC50). From the text:
(§1) 2. Preparation of Test Substance
(§2) 4. Analysis of Measurement Results

For assay [2], the system named is pulmonary arterial smooth muscle cells. Nature of the assay: Suppression of proliferation of pulmonary arterial smooth muscle cells (PDGF-BB stimulation, BrdU). It counts as cell-based. The note with it: healthy human derived pulmonary arterial smooth muscle cells, human PDGF-BB 10 ng/mL stimulation, BrdU uptake after 1 day, test substance final concentration 3 to 10,000 nM, read-out: Human normal PASMC proliferation suppression (PDGF stimulation_IC50). A digest of the protocol: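 Test compound (final 3 to 10,000 nM) was added together with BrdU and PDGF-BB (final 10 ng/mL) to healthy human pulmonary artery smooth muscle cells held a day in 0.1% FBS. Proliferation was read after 1 day as anti-BrdU-detected BrdU incorporation.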

In assay [3] the target is TEL-KIT fusion gene transfected cells (Ba/F3) (Homo sapiens, UniProt P10721). Nature of the assay: Suppression of proliferation of TEL-KIT fusion gene transfected Ba/F3 cells.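 Also: viable cells quantified via formazan from tetrazolium reduction, inhibition scaled with 0.1% DMSO control as 0% and medium-only blank as 100%, IC50 from two-parameter logistic fit.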 The note with it: read-out: KIT/BaF3 proliferation inhibition (IC50); TEL-KIT expressing Ba/F3 cells, 72 hours, final concentration 0.1 to 10,000 nM.
TEL-KIT fusion gene transfected cells (Ba/F3) (Homo sapiens, UniProt P10721), sequence (P10721 26-976 limits assumed, change not shown): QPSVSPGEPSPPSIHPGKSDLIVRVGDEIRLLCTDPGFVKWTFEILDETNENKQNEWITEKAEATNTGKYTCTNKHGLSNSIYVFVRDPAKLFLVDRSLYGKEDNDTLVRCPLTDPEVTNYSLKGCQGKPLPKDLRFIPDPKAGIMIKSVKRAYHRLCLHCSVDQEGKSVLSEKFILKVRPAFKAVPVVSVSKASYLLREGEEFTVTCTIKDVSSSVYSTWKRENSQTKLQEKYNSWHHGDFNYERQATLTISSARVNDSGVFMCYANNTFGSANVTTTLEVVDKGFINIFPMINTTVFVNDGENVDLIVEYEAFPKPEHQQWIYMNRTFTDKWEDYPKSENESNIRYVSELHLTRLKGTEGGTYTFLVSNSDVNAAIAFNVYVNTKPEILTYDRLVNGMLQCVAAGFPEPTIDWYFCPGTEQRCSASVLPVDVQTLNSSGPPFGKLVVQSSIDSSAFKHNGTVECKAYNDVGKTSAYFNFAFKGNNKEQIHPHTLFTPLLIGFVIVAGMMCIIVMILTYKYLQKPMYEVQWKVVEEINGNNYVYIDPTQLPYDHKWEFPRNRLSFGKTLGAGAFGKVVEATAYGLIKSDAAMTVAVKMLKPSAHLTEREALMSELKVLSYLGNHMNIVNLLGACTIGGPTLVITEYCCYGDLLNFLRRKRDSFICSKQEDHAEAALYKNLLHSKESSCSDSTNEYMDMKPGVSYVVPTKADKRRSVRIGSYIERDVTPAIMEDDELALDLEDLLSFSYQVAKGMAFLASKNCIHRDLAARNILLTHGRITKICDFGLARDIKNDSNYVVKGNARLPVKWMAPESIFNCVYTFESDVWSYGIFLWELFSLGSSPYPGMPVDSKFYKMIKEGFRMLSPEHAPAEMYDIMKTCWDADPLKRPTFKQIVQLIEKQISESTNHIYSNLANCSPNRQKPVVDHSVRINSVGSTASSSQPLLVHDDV
From the text: (§3) Fabrication of TEL-PDGFRβ and TEL-KIT Fusion Gene Transfected Cells
(§4) Subsequently, the vectors for gene transfection were introduced using a transfection reagent (FuGENE6, Promega Corporation) into packaging cells derived from a human fetal kidney cell line, PLAT-E, in the logarithmic growth phase. Since the culture supernatant of PLAT-E after the gene transfection contained virus particles for gene transfection, it was collected and used as a medium for gene transfection. The medium for gene transfection was added to a plate coated with RetroNectin and incubated, and the virus particles were allowed to adhere to the plate. Thereafter, the mouse pro-B cell line Ba/F3 in the logarithmic growth phase was seeded onto the plate and infected with the virus to fabricate cells that proliferate in a PDGFRβ or KIT dependent manner.
(§5) The test substance was prepared with dimethyl sulfoxide (DMSO) to 10 mM and diluted with DMSO so as to reach a concentration of 0.0001 to 3 mM. Furthermore, it was diluted by 100 times with distilled water.
(§6) Measurement of Suppression Action Against Proliferation of TEL-PDGFRβ or TEL-KIT Expressing Cells
(§7) The day after TEL-PDGFRβ and TEL-KIT expressing cells were seeded onto 96 well plates, the prepared test substance solution was added thereto with a final concentration being 0.1 to 10,000 nM. After 72 hours, the viable cell count was measured using the amount of formazan generated from the reduction of a tetrazolium salt compound by the mitochondrial dehydrogenase of viable cells as an indicator.
(§8) Based on the amount of formazan in each condition, the suppression rate against cell proliferation was calculated when the amounts of formazan in the negative control (0.1% DMSO solution) and Blank (medium only) were defined as 0% and 100%, respectively. Subsequently, a nonlinear regression analysis with a two parameter logistic model for the log dose and suppression rate against cell proliferation was carried out using the SAS system (SAS Institute Inc.) to estimate the IC50 value.
Assay [4] relates to TEL-PDGFRβ fusion gene transfected cells (Ba/F3). Nature of the assay: Suppression of proliferation of TEL-PDGFRβ fusion gene transfected Ba/F3 cells. The note with it: TEL-PDGFRβ expressing Ba/F3 cells, 72 hours, final concentration 0.1 to 10,000 nM; read-out: PDGFR β/BaF3 proliferation inhibition (IC50). The format is cell-based, human.
From the text: as §1, §2

The target in assay [5] is TEL-KIT fusion gene transfected cells (Ba/F3). Nature of the assay: Suppression of proliferation of TEL-KIT fusion gene transfected Ba/F3 cells.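 Also: viable cells quantified via formazan from tetrazolium reduction, inhibition scaled with 0.1% DMSO control as 0% and medium-only blank as 100%, IC50 from two-parameter logistic fit.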 As to conditions: read-out: KIT/BaF3 proliferation inhibition (IC50); TEL-KIT expressing Ba/F3 cells, 72 hours, final concentration 0.1 to 10,000 nM.
TEL-KIT fusion gene transfected cells (Ba/F3), sequence (P10721 26-976 limits assumed, change not shown): as above
From the text: as §3, §4, §5, §6, §7, §8

Where two headings read alike, the source gives them in different places.

TEL-PDGFRβ fusion gene transfected cells (Ba/F3) (Homo sapiens, UniProt P09619), sequence (P09619 33-1106 limits assumed, change not shown): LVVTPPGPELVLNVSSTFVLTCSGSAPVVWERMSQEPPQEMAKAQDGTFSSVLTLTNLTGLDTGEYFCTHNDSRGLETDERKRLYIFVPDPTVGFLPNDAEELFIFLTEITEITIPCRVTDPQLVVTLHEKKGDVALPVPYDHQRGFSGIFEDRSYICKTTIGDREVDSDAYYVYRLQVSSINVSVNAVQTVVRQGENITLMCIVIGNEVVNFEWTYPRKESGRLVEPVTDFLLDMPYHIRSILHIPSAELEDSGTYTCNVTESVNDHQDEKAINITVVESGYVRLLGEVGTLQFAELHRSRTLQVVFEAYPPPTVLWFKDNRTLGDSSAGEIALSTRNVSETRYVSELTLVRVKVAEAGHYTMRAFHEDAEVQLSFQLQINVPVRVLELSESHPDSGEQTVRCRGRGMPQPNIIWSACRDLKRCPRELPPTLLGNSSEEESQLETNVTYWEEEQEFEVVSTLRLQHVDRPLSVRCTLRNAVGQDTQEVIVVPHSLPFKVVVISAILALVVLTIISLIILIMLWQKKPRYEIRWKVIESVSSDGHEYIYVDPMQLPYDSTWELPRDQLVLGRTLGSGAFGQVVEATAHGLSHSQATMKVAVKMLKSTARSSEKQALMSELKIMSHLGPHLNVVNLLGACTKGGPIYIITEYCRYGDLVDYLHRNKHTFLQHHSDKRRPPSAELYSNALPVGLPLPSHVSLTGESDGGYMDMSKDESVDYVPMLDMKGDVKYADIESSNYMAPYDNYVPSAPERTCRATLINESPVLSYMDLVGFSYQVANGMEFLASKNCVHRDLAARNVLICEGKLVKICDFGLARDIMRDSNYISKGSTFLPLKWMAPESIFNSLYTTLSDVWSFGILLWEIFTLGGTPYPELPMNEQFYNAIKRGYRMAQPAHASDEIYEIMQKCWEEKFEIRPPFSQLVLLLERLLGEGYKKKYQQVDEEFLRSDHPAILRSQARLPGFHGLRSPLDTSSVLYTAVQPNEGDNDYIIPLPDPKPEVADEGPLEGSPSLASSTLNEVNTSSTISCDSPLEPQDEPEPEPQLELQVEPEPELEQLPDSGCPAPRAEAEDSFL
PDGFR-β, sequence (P09619 33-1106): as the sequence (P09619 33-1106 limits assumed, change not shown) above

In the case of “3-{[([3,3′-bipyridin]-5-yl)methyl]amino}-N-[(1S,2S)-2-hydroxycyclohexyl]-4-methylbenzamide [Example 93]”, the IC50 at PDGFR-β was 360 nM; in assay [1], 45 nM; in assay [2], 260 nM; in assay [3], 6200 nM.

As to `Cc1ccc(C(=O)N[C@H]2CCCC[C@@H]2O)cc1C#Cc1cncc(-c2ccccc2)c1` [Example 60, N-[(1S,2S)-2-hydroxycyclohexyl]-4-methyl-3-[(5-phenylpyridin-3-yl)ethynyl]benzamide], the IC50 on PDGFR-β is 46 nM; in assay [1], 5.9 nM; in assay [2] (PASMC, 24 h) it was 26 nM; in assay [3] it was 410 nM.

For `Cc1ccc(C(=O)N[C@H]2CCCC[C@@H]2O)cc1C#Cc1cncc(-c2ccccc2)n1` [Example 75, N-[(1S,2S)-2-hydroxycyclohexyl]-4-methyl-3-[(6-phenylpyrazin-2-yl)ethynyl]benzamide], the IC50 on PDGFR-β was found to be 15 nM; in assay [1], 4.5 nM; in assay [2] (PASMC, 24 h), 13 nM; in assay [3], 300 nM.

In the case of `Cc1ccc(CNc2cncc(-c3ncccn3)c2)cc1NC(=O)N[C@@H]1CCCC[C@@H]1O` [Example 163, N-[(1R,2S)-2-hydroxycyclohexyl]-N′-[2-methyl-5-({[5-(pyrimidin-2-yl)pyridin-3-yl]amino}methyl)phenyl]urea], the IC50 at PDGFR-β turned out to be 260 nM; in assay [4] it was 200 nM; in assay [2], 150 nM; in assay [3], 2600 nM.

On to `Cc1ccc(C(=O)N[C@H]2CCCC[C@@H]2O)cc1OCc1cncc(-c2cccnc2)c1` [Example 165, 3-[([3,3′-bipyridin]-5-yl)methoxy]-N-[(1S,2S)-2-hydroxycyclohexyl]-4-methylbenzamide], for which the IC50 turned out to be 390 nM on PDGFR-β; 9 nM in assay [4]; 46 nM in assay [2] (PASMC, 24 h); 2900 nM in assay [5].

On to `Cc1ccc(C(=O)N[C@H]2CCCC[C@@H]2O)cc1OCc1cncc(-c2ncccn2)c1` [Example 166, N-[(1S,2S)-2-hydroxycyclohexyl]-4-methyl-3-{[5-(pyrimidin-2-yl)pyridin-3-yl]methoxy}benzamide], for which the IC50 at PDGFR-β was found to be 49 nM; in assay [4], 2.5 nM; in assay [2] (PASMC, 24 h) it was 65 nM; in assay [5], 1200 nM.

For `Cc1ccc(C(=O)N[C@H]2CCCC[C@@H]2O)cc1COc1cncc(-c2cccnc2)c1` [Example 168, 3-{[([3,3′-bipyridin]-5-yl)oxy]methyl}-N-[(1S,2S)-2-hydroxycyclohexyl]-4-methylbenzamide], the IC50 on PDGFR-β was 350 nM; in assay [4] it was 18 nM; in assay [2] (PASMC, 24 h), 110 nM; in assay [5], 4100 nM.

For `Cc1ccc(C(=O)N[C@H]2CCCC[C@@H]2O)cc1COc1cncc(-c2ncccn2)c1` [Example 169, N-[(1S,2S)-2-hydroxycyclohexyl]-4-methyl-3-({[5-(pyrimidin-2-yl)pyridin-3-yl]oxy}methyl)benzamide], the IC50 on PDGFR-β worked out at 52 nM; in assay [4], 4 nM; in assay [2] (PASMC, 24 h), 43 nM; in assay [5] it was 400 nM.

As for `Cc1ccc(C(=O)N[C@H]2CCCC[C@@H]2O)cc1/C=C/c1cncc(-c2ccccc2)c1` [Example 173, N-[(1S,2S)-2-hydroxycyclohexyl]-4-methyl-3-[(E)-2-(5-phenylpyridin-3-yl)ethenyl]benzamide], the figures for the IC50 (on PDGFR-β; in assay [1]; in assay [3]) were 54 nM, 4.6 nM and 700 nM, respectively.

The record behind these values is patent publication US12509424B2, “Compound and composition as PDGF receptor kinase inhibitor” (NIPPON SHINYAKU CO., LTD., priority 2019, dated 2025).
